Test results from US20240270713A1, “NOVEL COMPOUND EXHIBITING THERAPEUTIC EFFECT ON INFLAMMATORY DISEASE AS P38 MAP KINASE INHIBITOR” (PRAZERTHERAPEUTICS INC., priority 2021, published 2024).

Columns and labels:
p-p38 MAPK [1] = molecular target: T1, p-p38 MAPK (Mus musculus (Mouse), UniProt P47811); experiment: p38 MAPK protein inhibitory ability in cells (p-p38 immunoblot, LPS-treated Raw264.7); type: cell-based; conditions: Raw264.7 cells, 1 μM compound 24 hours, then 100 ng/ml LPS 6 hours
Description: Evaluation of p38 MAPK protein inhibitory ability in cells
(§1) In order to identify inhibition of p-p38 MAPK, inhibition of p38 MAPK was identified after treating each compound to Raw264.7 cells which are obtained by converting macrophages that induces inflammation according to p-p38 MAPK activity into cancerous cells. Briefly, Raw264.7 cells were cultured in Dulbecco's modified Eagle Medium supplemented with 10% fetal bovine serum and penicillin/streptomycin (100 U/ml). Raw264.7 cells were treated with 1 μM of Compounds 1 to 5 according to the present disclosure in a culture dish respectively and cultured for 24 hours in a CO2 incubator, and then treated with 100 ng/ml of LPS, followed by additional culture for 6 hours in a CO2 incubator.
(§2) After cell culture was terminated according to the experimental conditions, cells were washed with cold phosphate buffered saline (PBS). The cells were then collected and centrifuged at 1200 rpm for 3 minutes. The pellet was lysed with 2X sample buffer (1M Tris-HCl pH 6.8, 50% glycerol, 10% SDS, 2-mercaptoethanol, 1% bromophenol blue) and boiled at 100° C. for 10 minutes. The prepared protein samples were subjected to sodium dodecyl sulfate poly acrylamide gel electrophoresis and transferred to PVDF membrane (Millipore). For a specific binding reaction between the protein in the PVDF membrane and antibody, blocking was performed in a 5% bovine serum albumin (BSA, RMbio) solution. Subsequently, the BSA solution was discarded, and the membrane was washed with PBS-T (0.5% Tween 20 in PBS). The binding reaction of the protein in the membrane and antibody was performed overnight at 4° C. and washed again with PBS-T. Finally, a secondary antibody (Cell signaling Technology) conjugated with horse radish peroxidase (HRP) was diluted in PBS-T and reacted at room temperature for 2 hours. Luminata Forte HRP substrate (Millipore) was used to determine the amount of protein in the membrane, the results of which are shown in Table 4 below.

p-p38 MAPK [2] = molecular target: T1, p-p38 MAPK; experiment: p38 MAPK protein inhibitory ability in normal brain cells (p-p38 immunoblot, primary neurons); type: cell-based, ICR mice
From the text: Evaluation of p38 MAPK protein inhibitory ability in normal brain cells
In order to identify inhibition of p-p38 MAPK in normal cells rather than cancer cells, the inhibition of p38 MAPK was identified by inducing inflammation after treating neuron cells obtained from cerebrum of ICR mice with each compound. In short, neurons were collected from the cerebrum of the embryos of ICR mice 17-18 days after gestation and cultured for 7 days in a neurobasal medium supplemented with 2% B27 supplements, 2 mM glutamine, and penicillin/streptomycin (100 U/ml). Primary neurons were treated with 1 μM of Compounds 4 and 6 according to the present disclosure in a culture dish respectively and cultured for 24 hours in a CO2 incubator, and then treated with 1000 ng/ml of LPS, followed by additional culture for 6 hours in a CO2 incubator.
as §2, with “After the” for “After”, “conditions, washing was performed” for “conditions, cells were washed”, “The cells in the sediment were” for “The pellet was”, “reaction between” for “reaction of”, “Table 9” for “Table 4”

TNFα mRNA = experiment: Cytokine mRNA expression inhibitory ability, TNFα, LPS-treated Raw264.7 cells; type: cell-based; conditions: 1 μM compound 24 hours, then 100 ng/ml LPS 24 hours
Description: Evaluation of cytokine mRNA expression inhibitory ability according to inflammatory response
as §1, with “cells” for “cells which are”, “activity” for “activity into”, “for 24” for “for 6”
After cell culture was terminated according to the experimental conditions, cells were washed with cold phosphate buffered saline (PBS). The cells were then collected and centrifuged at 1200 rpm for 3 minutes. RNA was extracted according to the method provided in the Hybrid-R total RNA purification kit (GeneAll, 305-101). After measuring the concentration and purity of RNA using Nanodrop, cDNA was synthesized according to the method provided in TOPscript RT DryMIX (Enzynomics, RT200). After a reaction at 95° C. for 3 minutes using SYBR Green Mix along with primer, cDNA was subjected to repetitive reactions 30 times at 95° C. for 10 seconds, at 55° C. for 10 seconds, and at 72° C. for 30 seconds to determine the RNA expression level. The results are shown in Tables 5 and 6 below and FIGS. 1 and 2.

TNFα = TNFα inhibitory ability by cellular inflammatory response (supernatant, antibody-coated plate), Raw264.7 cells; type: cell-based; conditions: Mus musculus, 1 μM compound 24 hours, then 100 ng/ml LPS 24 hours, supernatant protein
Description: Evaluation of TNFα inhibitory ability by cellular inflammatory response
as §1, with “cells” for “cells which are”, “activity” for “activity into”, “for 24” for “for 6”
After the cell culture was completed according to the experimental conditions, the supernatant was obtained and centrifuged for 3 minutes at 1200 rpm. The centrifuged supernatant was dispensed into an antibody-coated plate, reacted at room temperature for 2 hours, and washed with PBS-T (0.5% tween 20 in PBS). After dispensing detection antibody including HRP, a reaction was performed at room temperature for 1 hour, and the amount of protein was checked at a wavelength of 450 nm, the results of which are shown in Table 7 below.

T1 sequence (P47811 whole entry): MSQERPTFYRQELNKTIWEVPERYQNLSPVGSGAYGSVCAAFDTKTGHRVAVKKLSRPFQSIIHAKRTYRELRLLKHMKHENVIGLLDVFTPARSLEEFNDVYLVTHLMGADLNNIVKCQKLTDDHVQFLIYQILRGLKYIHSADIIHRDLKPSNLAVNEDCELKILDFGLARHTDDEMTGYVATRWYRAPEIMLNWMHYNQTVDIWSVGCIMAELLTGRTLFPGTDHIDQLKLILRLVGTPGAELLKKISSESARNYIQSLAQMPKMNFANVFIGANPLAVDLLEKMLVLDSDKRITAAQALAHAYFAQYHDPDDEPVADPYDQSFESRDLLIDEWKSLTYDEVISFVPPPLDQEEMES

inhibition at 1 µM (p-p38 MAPK [1]): 68%
inhibition at 1 µM (p-p38 MAPK [2]; primary neurons from cerebrum of ICR mouse embryos, 1 μM compound 24 hours, then 1000 ng/ml LPS 6 hours): 55.8%
Compound: Cc1c(F)cc(C(=O)NC2CC2)cc1-c1ccc(C(=O)c2c[nH]c3ccccc23)cn1 [Compound 4, 3-(5-(1H-indole-3-carbonyl)pyridin-2-yl)-N-cyclopropyl-5-fluoro-4-methylbenzamide]
p38 phosphorylation due to inflammation in normal cells (result in words) (p-p38 MAPK [2]; primary mouse neurons, 1 μM): effectively inhibited p38 phosphorylation
TNFα mRNA inhibition (TNFα mRNA): 51.5%
inhibition at 1 µM (TNFα): 76.6%
